Tests used:
FLT3 = molecular target: T1, FLT3 (Homo sapiens, UniProt P36888); settings: cited from earlier work
T1 sequence (P36888 27-993): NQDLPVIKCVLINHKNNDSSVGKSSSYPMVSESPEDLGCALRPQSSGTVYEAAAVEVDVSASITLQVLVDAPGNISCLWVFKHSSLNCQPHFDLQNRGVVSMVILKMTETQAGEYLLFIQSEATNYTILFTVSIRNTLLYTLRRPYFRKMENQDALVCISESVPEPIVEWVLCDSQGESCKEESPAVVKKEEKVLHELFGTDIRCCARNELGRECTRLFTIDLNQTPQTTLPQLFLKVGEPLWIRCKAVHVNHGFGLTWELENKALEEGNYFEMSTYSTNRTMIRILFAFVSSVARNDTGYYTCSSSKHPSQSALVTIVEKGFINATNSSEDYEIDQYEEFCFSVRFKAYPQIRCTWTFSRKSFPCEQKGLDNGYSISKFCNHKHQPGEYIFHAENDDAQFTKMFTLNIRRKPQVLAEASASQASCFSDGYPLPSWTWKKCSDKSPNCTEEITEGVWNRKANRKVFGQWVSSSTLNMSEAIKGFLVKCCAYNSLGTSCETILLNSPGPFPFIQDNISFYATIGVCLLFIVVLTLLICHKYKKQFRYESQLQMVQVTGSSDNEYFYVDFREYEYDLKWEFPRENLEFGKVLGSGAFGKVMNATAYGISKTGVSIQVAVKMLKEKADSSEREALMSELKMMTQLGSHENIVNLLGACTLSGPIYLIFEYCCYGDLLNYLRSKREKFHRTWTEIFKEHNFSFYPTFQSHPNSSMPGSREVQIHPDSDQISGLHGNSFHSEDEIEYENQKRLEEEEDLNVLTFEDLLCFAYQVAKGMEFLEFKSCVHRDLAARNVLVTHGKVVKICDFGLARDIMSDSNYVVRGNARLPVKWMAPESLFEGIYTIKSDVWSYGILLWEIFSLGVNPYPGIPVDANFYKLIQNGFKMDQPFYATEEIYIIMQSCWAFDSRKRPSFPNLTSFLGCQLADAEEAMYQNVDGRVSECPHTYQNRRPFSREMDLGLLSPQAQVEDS

hERG = hERG (Homo sapiens, UniProt Q12809); settings: cited from earlier work
hERG, sequence (Q12809 whole entry): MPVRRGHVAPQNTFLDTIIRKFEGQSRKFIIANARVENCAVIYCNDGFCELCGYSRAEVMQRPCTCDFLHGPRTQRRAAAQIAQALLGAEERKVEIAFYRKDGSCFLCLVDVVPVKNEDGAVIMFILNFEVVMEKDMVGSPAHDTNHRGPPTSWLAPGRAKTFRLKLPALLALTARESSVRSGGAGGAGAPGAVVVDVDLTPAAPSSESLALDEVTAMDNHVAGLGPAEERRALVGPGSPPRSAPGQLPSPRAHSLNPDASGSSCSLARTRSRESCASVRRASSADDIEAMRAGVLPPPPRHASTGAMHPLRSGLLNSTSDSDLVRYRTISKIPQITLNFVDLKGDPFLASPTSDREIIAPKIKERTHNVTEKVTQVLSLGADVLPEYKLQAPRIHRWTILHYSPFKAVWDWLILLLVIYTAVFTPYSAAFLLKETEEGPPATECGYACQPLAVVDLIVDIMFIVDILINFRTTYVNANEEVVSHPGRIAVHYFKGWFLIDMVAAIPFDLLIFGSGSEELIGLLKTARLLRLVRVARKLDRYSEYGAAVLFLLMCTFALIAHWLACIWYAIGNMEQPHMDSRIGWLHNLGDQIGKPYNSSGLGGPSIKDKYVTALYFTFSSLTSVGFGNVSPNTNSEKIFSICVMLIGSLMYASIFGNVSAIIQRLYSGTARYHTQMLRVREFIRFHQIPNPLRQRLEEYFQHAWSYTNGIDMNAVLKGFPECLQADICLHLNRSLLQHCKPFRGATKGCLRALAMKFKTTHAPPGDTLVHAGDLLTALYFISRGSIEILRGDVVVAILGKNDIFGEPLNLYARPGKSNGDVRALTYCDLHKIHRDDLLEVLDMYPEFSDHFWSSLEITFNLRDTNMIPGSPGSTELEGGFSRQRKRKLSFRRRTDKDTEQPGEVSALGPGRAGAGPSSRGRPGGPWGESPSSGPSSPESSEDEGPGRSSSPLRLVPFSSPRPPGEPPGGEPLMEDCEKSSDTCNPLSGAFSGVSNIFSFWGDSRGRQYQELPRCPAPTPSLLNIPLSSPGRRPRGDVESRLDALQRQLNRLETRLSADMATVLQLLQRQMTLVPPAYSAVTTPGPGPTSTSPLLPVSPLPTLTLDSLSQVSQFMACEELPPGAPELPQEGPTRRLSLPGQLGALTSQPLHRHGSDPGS

Aurora C = molecular target: T2, Aurora C (Homo sapiens, UniProt Q9UQB9); settings: cited from earlier work
T2 sequence (Q9UQB9 1-309): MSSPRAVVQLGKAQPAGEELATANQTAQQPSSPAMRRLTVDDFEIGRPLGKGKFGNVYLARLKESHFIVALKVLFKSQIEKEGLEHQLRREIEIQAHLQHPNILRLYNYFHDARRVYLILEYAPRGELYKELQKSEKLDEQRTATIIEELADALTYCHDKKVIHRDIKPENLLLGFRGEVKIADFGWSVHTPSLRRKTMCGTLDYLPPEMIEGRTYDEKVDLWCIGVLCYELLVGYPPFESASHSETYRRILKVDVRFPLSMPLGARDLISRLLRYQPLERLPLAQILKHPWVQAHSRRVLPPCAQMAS

[1] = Thermodynamic solubility assessment in biological media (FaSSIF, FeSSIF, FaSSGF), HPLC of mother liquors; format: physicochemical; settings: listed as Compound A free base
Protocol: The thermodynamic solubility of Compound A free base, Compound A fumarate Form 1 and Compound A hemi-fumarate Form 3 was assessed in 3 biological media: Fasted State Simulated Intestinal Fluid (FaSSIF); Fed State Simulated Intestinal Fluid (FeSSIF) and Fasted State Simulated Gastric Fluid (FaSSGF).
The following procedure was carried out. Approximately 10 mg of material was weighed into 3×1.5 mL glass vials. 0.02 mL aliquots of appropriate buffer were added to each vial until a final concentration of 10 mg/mL was obtained. The samples were then filtered via centrifugation and the mother liquors analyzed by HPLC.

Aurora A = molecular target: T3, Aurora A (Homo sapiens, UniProt O14965); settings: cited from earlier work
T3 sequence (O14965 1-403): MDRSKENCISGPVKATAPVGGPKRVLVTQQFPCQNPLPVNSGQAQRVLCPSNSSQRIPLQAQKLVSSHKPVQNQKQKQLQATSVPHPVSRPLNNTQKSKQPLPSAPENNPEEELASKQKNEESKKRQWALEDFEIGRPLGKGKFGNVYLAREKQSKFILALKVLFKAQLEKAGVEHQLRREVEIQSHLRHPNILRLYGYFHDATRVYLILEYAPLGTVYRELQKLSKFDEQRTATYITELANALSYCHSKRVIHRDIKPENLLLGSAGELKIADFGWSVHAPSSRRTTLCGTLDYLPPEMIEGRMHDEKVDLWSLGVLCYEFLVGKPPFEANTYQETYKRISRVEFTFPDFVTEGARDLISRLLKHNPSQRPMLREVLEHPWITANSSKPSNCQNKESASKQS

Aurora B = Aurora B (Homo sapiens, UniProt Q96GD4); settings: cited from earlier work
Aurora B, sequence (Q96GD4 whole entry): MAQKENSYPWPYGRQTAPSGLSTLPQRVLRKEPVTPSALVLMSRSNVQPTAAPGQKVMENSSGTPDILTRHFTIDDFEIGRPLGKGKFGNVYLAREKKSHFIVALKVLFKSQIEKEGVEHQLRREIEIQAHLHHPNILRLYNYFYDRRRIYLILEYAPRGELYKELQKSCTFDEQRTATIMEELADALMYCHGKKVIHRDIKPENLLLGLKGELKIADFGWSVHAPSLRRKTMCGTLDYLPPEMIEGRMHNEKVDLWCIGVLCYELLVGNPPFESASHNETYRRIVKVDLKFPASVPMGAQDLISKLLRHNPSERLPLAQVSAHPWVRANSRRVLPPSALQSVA

cytochrome P450 = settings: cited from earlier work

Cc1nn(C)cc1-c1nc2c(N3CCN(Cc4ccc(Cl)cc4)CC3)c(Cl)cnc2[nH]1 [Compound A, 6-chloro-7-(4-(4-chlorobenzyl)piperazin-1-yl)-2-(1,3-dimethyl-1H-pyrazol-4-yl)-3H-imidazo[4,5-b]pyridine]
activity against FLT3 kinase (FLT3): high activity | interaction with hERG (hERG): minimal interaction | activity against Aurora C kinase (Aurora C): high activity | Concentration (thermodynamic solubility) ([1]; FaSSGF pH 1.6): 1.5 mg/mL | Concentration (thermodynamic solubility) ([1]; FaSSIF pH 6.5): <0.1 mg/mL | Concentration (thermodynamic solubility) ([1]; FeSSIF pH 5.0): <0.1 mg/mL | activity against Aurora A kinase (Aurora A): high activity | activity against Aurora B kinase (Aurora B): high activity | interaction with cytochrome P450 activity (cytochrome P450): minimal interaction

— US12624027B2, “Salts and polymorphic forms of 6-chloro-7-(4-(4-chlorobenzyl)piperazin-1-yl)-2-(1,3-dimethyl-1H-pyrazol-4-yl)-3H-imidazo[4,5-b]pyridine” (ELLIPSES PHARMA LTD, priority 2020, dated 2026)
